Measured values as given in ChEMBL document CHEMBL1201862, “PubChem BioAssay data set” (2004).
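1) Cells in 96-well plates. 2) Compound, 48 h, 5 concentrations. 3) Linear interpolation between surrounding doses. 4) Unreached endpoint = highest concentration. GI50 marks 50% less growth.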 Calls of active or inactive are those of the source. No stated cut-off is given here; in the data, active = GI50 up to about 1.1 µM and inactive = higher.

Tests used:
Test in all cases: DTP human tumour cell line panel, 48 h
T47D = system: T47D
SK-MEL-5 = system: SK-MEL-5
MDA-MB-435 = system: MDA-MB-435
Malme-3M = system: Malme-3M
A549 = system: A549
TK-10 = system: TK-10
HCT-15 = system: HCT-15
786-0 = system: 786-0
UACC-62 = system: UACC-62
PC-3 = system: PC-3
OVCAR-8 = system: OVCAR-8
KM12 = system: KM12
SW-620 = system: SW-620
K562 = system: K562
BT-549 = system: BT-549
A498 = system: A498
SK-MEL-28 = system: SK-MEL-28

| Structure (SMILES) | GI50 (T47D) | GI50 (SK-MEL-5) | GI50 (MDA-MB-435) | GI50 (Malme-3M) | GI50 (A549) | GI50 (TK-10) | GI50 (HCT-15) [µM] | GI50 (786-0) | GI50 (UACC-62) | GI50 (PC-3) | GI50 (OVCAR-8) | GI50 (KM12) | GI50 (SW-620) | GI50 (K562) | GI50 (BT-549) | GI50 (A498) | GI50 (SK-MEL-28) |
| --- | --- | --- | --- | --- | --- | --- | --- | --- | --- | --- | --- | --- | --- | --- | --- | --- | --- |
| CC(=O)N1CCN(C23OC4(N5CCN(C(C)=O)CC5)C5C6CC(C7C6C4C72)C53)CC1 (stereo not given) | > 100 µM (inactive) | > 100 µM (inactive) | > 100 µM (inactive) | > 100 µM (inactive) | > 100 µM (inactive) | > 100 µM (inactive) | > 100 | > 100 µM (inactive) | > 100 µM (inactive) | > 100 µM (inactive) | > 100 µM (inactive) | > 100 µM (inactive) | > 100 µM (inactive) | > 100 µM (inactive) | > 100 µM (inactive) |  |  |
| CC1(C=O)CCC23COC4(CCC5C6(C)CCC(OC7OCC(OC8OC(CO)C(O)C(OC9OC(CO)C(O)C(O)C9O)C8OC8OCC(O)C(O)C8O)C(O)C7OC7OC(CO)C(O)C(O)C7O)C(C)(C)C6CCC5(C)C4(C)CC2O)C3C1 (stereo not given) | 1.61 µM (inactive) | 1.61 µM (inactive) | 1.48 µM (inactive) |  | 1.63 µM (inactive) | 1.89 µM (inactive) | 1.53 | 1.2 µM (inactive) | 1.71 µM (inactive) | 1.38 µM (inactive) | 0.365 µM (active) | 0.0474 µM (active) | 0.628 µM (active) | 3.1 µM (inactive) | 1.57 µM (inactive) | 0.552 µM (active) |  |
| C=CCNC(=O)NC(=O)CSC1=NC(=O)C2(NN1)c1ccccc1-c1ccccc12 | > 10 µM (inactive) | > 10 µM (inactive) | > 10 µM (inactive) | > 10 µM (inactive) | > 10 µM (inactive) | > 10 µM (inactive) | > 10 | > 10 µM (inactive) | > 10 µM (inactive) | > 10 µM (inactive) | > 10 µM (inactive) | > 10 µM (inactive) | > 10 µM (inactive) | > 10 µM (inactive) | > 10 µM (inactive) |  | > 10 µM (inactive) |
| O=C(O)c1cc2cc(c1)/N=C/c1ccccc1OCc1cccc(n1)COc1ccccc1/C=N/2 |  |  | 3.78 µM (inactive) | 3.64 µM (inactive) | > 25 µM (inactive) | 13.6 µM (inactive) | 8.45 | 10.6 µM (inactive) | 8.45 µM (inactive) | 24 µM (inactive) | > 25 µM (inactive) | 13 µM (inactive) | 9.68 µM (inactive) | 10.1 µM (inactive) | 23.6 µM (inactive) | > 25 µM (inactive) | 23.3 µM (inactive) |
| Cn1cc(S(=O)(=O)NC(=O)Nc2ccc(Cl)cc2)c(=O)c2ccc(Cl)cc21 | > 100 µM (inactive) | > 100 µM (inactive) | 48.5 µM (inactive) | > 100 µM (inactive) | > 100 µM (inactive) | > 100 µM (inactive) | 25.7 | > 100 µM (inactive) | 20.9 µM (inactive) | 76.6 µM (inactive) | > 100 µM (inactive) | 69.7 µM (inactive) | > 100 µM (inactive) | 47.1 µM (inactive) | 43.8 µM (inactive) |  | > 100 µM (inactive) |
| CC(C)(C)[Si](C)(C)OCC1CCC(n2cnc3c(NC(=O)c4ccccc4)ncnc32)O1 (stereo not given) | 26.4 µM (inactive) | 11.5 µM (inactive) | 15.8 µM (inactive) | 19.9 µM (inactive) | 19 µM (inactive) | 20.5 µM (inactive) | 18.6 | 17.5 µM (inactive) | 14 µM (inactive) | 20.6 µM (inactive) | 28.5 µM (inactive) | 17.3 µM (inactive) | 20 µM (inactive) | 18.7 µM (inactive) |  | 21.1 µM (inactive) | 14.3 µM (inactive) |
| Cc1ccc(/C=C2\NC(=S)NC2=O)cc1 | > 100 µM (inactive) | > 100 µM (inactive) | > 100 µM (inactive) | > 100 µM (inactive) | > 100 µM (inactive) | > 100 µM (inactive) | > 100 | > 100 µM (inactive) | > 100 µM (inactive) | > 100 µM (inactive) | > 100 µM (inactive) | > 100 µM (inactive) | > 100 µM (inactive) | > 100 µM (inactive) | > 100 µM (inactive) |  | > 100 µM (inactive) |
| O=C1NC(N2CCCCC2)=N/C1=C\c1ccc(Cl)cc1 | 41.5 µM (inactive) | 35.5 µM (inactive) | 60.4 µM (inactive) | 16.5 µM (inactive) | 38.5 µM (inactive) | 30.2 µM (inactive) | 43.1 | 28.7 µM (inactive) | 26.5 µM (inactive) | 37.1 µM (inactive) | 20.2 µM (inactive) | 25.1 µM (inactive) | 68.4 µM (inactive) |  | 71.4 µM (inactive) |  | 92 µM (inactive) |
| COC(=O)C1=C(C)NC(=O)N2[C@@H](CCOCc3ccccc3)CC[C@@H]12 | 12.4 µM (inactive) | > 50 µM (inactive) | > 50 µM (inactive) | > 50 µM (inactive) | > 50 µM (inactive) | > 50 µM (inactive) | > 50 | > 50 µM (inactive) | > 50 µM (inactive) | > 50 µM (inactive) | > 50 µM (inactive) | > 50 µM (inactive) | > 50 µM (inactive) | > 50 µM (inactive) |  | > 50 µM (inactive) | > 50 µM (inactive) |
| O=c1[nH]c(=O)n(C2CC(O)C(CO)O2)cc1OCCCc1ccccc1 (stereo not given) | > 100 µM (inactive) | > 100 µM (inactive) | > 100 µM (inactive) | > 100 µM (inactive) | > 100 µM (inactive) | > 100 µM (inactive) | > 100 | > 100 µM (inactive) | > 100 µM (inactive) | > 100 µM (inactive) | > 100 µM (inactive) | > 100 µM (inactive) |  | > 100 µM (inactive) | > 100 µM (inactive) |  | > 100 µM (inactive) |
| CC(=O)O[C@H]1CC[C@@]2(C)C(=C[C@H](c3ccc(O)cc3)[C@H]3[C@@H]4CC[C@H](OC(C)=O)[C@@]4(C)CC[C@@H]32)C1 |  | 11.4 µM (inactive) | 25.2 µM (inactive) | 17.9 µM (inactive) | 16.3 µM (inactive) | 32.3 µM (inactive) | 12.3 | 19.6 µM (inactive) | 10.4 µM (inactive) | 14.3 µM (inactive) | 16.9 µM (inactive) | 16.6 µM (inactive) | 22 µM (inactive) | 12.9 µM (inactive) | 14.2 µM (inactive) | 0.51 µM (active) |  |
| BrC1(c2ccccc2)C[n+]2c(-c3ccccc3)cc(-c3ccccc3)cc2-c2ccccc21 (stereo not given) |  | 0.197 µM (active) | 0.205 µM (active) | 0.441 µM (active) | 0.929 µM (active) | 1.73 µM (inactive) | 2.9 | 0.661 µM (active) |  | 0.346 µM (active) | 0.36 µM (active) | 0.299 µM (active) | 0.426 µM (active) | 0.159 µM (active) | 0.407 µM (active) | 1.81 µM (inactive) | 0.92 µM (active) |
| N=c1oc2ccccc2cc1-c1nc2ccccc2c(=O)[nH]1 | > 100 µM (inactive) | > 100 µM (inactive) | > 100 µM (inactive) | 60.8 µM (inactive) | 78.3 µM (inactive) | 35.3 µM (inactive) | 78.2 | 31.4 µM (inactive) | 27.8 µM (inactive) | > 100 µM (inactive) | 60.3 µM (inactive) | 39.8 µM (inactive) | 72.3 µM (inactive) | > 100 µM (inactive) | 23.8 µM (inactive) |  | > 100 µM (inactive) |
| O=c1c2cc([N+](=O)[O-])ccc2n2n1CCCC2 | > 100 µM (inactive) | > 100 µM (inactive) | > 100 µM (inactive) | > 100 µM (inactive) | > 100 µM (inactive) | 24.2 µM (inactive) | > 100 | > 100 µM (inactive) | > 100 µM (inactive) | > 100 µM (inactive) | > 100 µM (inactive) | > 100 µM (inactive) | > 100 µM (inactive) | > 100 µM (inactive) |  | > 100 µM (inactive) | > 100 µM (inactive) |
| CN(C)C1(C(=O)O)CC1 | > 100 µM (inactive) | > 100 µM (inactive) | > 100 µM (inactive) | > 100 µM (inactive) | > 100 µM (inactive) | > 100 µM (inactive) | > 100 | > 100 µM (inactive) |  | > 100 µM (inactive) | > 100 µM (inactive) |  | > 100 µM (inactive) | > 100 µM (inactive) |  | > 100 µM (inactive) | > 100 µM (inactive) |
| COc1ccc(COC(=O)NNC(=O)C2CSC(c3ccccc3)N2C(C)=O)cc1 (stereo not given) |  | > 100 µM (inactive) | > 100 µM (inactive) | > 100 µM (inactive) | > 100 µM (inactive) | > 100 µM (inactive) | > 100 | > 100 µM (inactive) | > 100 µM (inactive) | > 100 µM (inactive) | > 100 µM (inactive) | > 100 µM (inactive) | > 100 µM (inactive) | > 100 µM (inactive) | > 100 µM (inactive) | > 100 µM (inactive) |  |
| O=c1n(Cc2ccccc2)c(=O)n2c(=O)n(Cc3ccccc3)c(=O)n12 | > 100 µM (inactive) | > 100 µM (inactive) | > 100 µM (inactive) | > 100 µM (inactive) |  | > 100 µM (inactive) | > 100 | > 100 µM (inactive) | > 100 µM (inactive) |  | > 100 µM (inactive) | > 100 µM (inactive) | > 100 µM (inactive) | > 100 µM (inactive) | > 100 µM (inactive) | > 100 µM (inactive) | > 100 µM (inactive) |
| O=C1c2ccccc2-c2nc(-c3ccncc3)cc3c2c1nc1ccccc13 |  |  | 16 µM (inactive) | 4.27 µM (inactive) | 13.6 µM (inactive) | 33.2 µM (inactive) | 19 | 11.1 µM (inactive) | 13.4 µM (inactive) | 13.3 µM (inactive) | 25.2 µM (inactive) | 11.8 µM (inactive) | 24.3 µM (inactive) | 16.1 µM (inactive) | 40.1 µM (inactive) |  | 32.3 µM (inactive) |
